Assay results as given in patent US7138361B2, “Herbicidal heterocycles” (E. I. du Pont de Nemours and Company, priority 2000, dated 2006).

Experiments:
Type in all cases: in vivo
Sunflower [1] = assay: Test C preemergence; settings: Rate 500 g/ha, visual evaluation after 12 to 14 days
corn (Zea mays) = assay: Test C preemergence
Procedure, shortened: (§1)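 Seeds are planted and treated before emergence; for the postemergence test, plants at 1- to 4-leaf stage (2–18 cm) receive the same formulation, a solvent blend containing surfactant. Plants stay in the greenhouse 12–14 days, then response is scored visually from 0 (none) to 100 (complete control).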

[2] = test system: velvetleaf (Abutilon theophrasti); assay: Test C preemergence
Procedure, shortened: as §1

[3] = test system: pigweed (Amaranthus retroflexus); assay: Test C preemergence
Procedure, shortened: as §1

Nightshade = assay: Test C preemergence
[4] = test system: cocklebur (Xanthium strumarium); assay: Test C preemergence
Procedure, shortened: as §1

kochia (Kochia scoparia) = assay: Test C preemergence
Procedure, shortened: as §1

[5] = test system: johnsongrass (Sorghum halepense); assay: Test C preemergence
Procedure, shortened: as §1

[6] = test system: bermudagrass (Cynodon dactylon); assay: Test C preemergence
Procedure, shortened: as §1

[7] = test system: common ragweed (Ambrosia elatior); assay: Test C preemergence
Procedure, shortened: as §1

[8] = test system: giant foxtail (Setaria faberii); assay: Test C preemergence
Procedure, shortened: as §1

[9] = test system: goosegrass (Eleusine indica); assay: Test C preemergence
Procedure, shortened: as §1

[10] = test system: crabgrass (Digitaria sanguinalis); assay: Test C preemergence
Procedure, shortened: as §1

[11] = test system: Surinam grass (Brachiaria decumbens); assay: Test C preemergence
Procedure, shortened: as §1

[12] = test system: woolly cupgrass (Eriochloa villosa); assay: Test C preemergence
Procedure, shortened: as §1

[13] = test system: lambsquarters (Chenopodium album); assay: Test C preemergence
Procedure, shortened: as §1

[14] = test system: yellow nutsedge (Cyperus esculentus); assay: Test C preemergence
Procedure, shortened: as §1

[15] = test system: morningglory (Ipomoea hederacea); assay: Test C preemergence
Procedure, shortened: as §1

Sunflower [16] = assay: Test C preemergence; settings: Rate 125 g/ha; scale 0 to 100, 0 no effect, 100 complete control
soybean (Glycine max) = assay: Test C preemergence
Procedure, shortened: as §1

[17] = test system: barnyardgrass (Echinochloa crus-galli); assay: Test C flooded paddy test; settings: for Barnyardgrass plant response rating: Flooded Paddy, scale 0 to 100, 0 no effect, 100 complete control
Procedure, shortened: (§2)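 Rice and three paddy weeds were grown to the 2-leaf stage under flooded conditions, then treated and kept in a greenhouse for 12–14 days. Response was rated visually against untreated controls on a 0–100 scale, where 100 is complete control.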

rice (Oryza saliva) = assay: Test C flooded paddy test; settings: for Rice plant response rating: Flooded Paddy, scale 0 to 100, 0 no effect, 100 complete control
Procedure, shortened: as §2

[18] = Rate 125 g/ha, scale 0 to 100, 0 no effect, 100 complete control
[19] = preemergence, Rate 62 g/ha, scale 0 to 100
[20] = preemergence, Rate 500 g/ha, visual evaluation after 12 to 14 days
[21] = preemergence, Rate 250 g/ha, scale 0 to 100, 0 no effect, 100 complete control
[22] = flooded paddy test, Rate 125 g/ha, scale 0 to 100 (0 no effect, 100 complete control)
[23] = flooded paddy test, Rate 62 g/ha, visually evaluated after 12 to 14 days, 0 = no effect, 100 = complete control

## CCCC(C)c1ccn(C2CCN(c3cccc(OCC)c3)C2=O)n1 (centres unmarked) [Compound 129]
Sunflower [1]
  Plant response rating (0 to 100), Sunflower: 10
Corn (Zea mays); [18]
  Plant response rating, Corn: 20
Corn (Zea mays); [19]
  Plant response rating, Corn: 0
Corn (Zea mays); [20]
  Plant response rating (0 to 100), Corn: 30
Corn (Zea mays); [21]
  Plant response rating, Corn: 30
[2]; [18]
  Plant response rating, Velvetleaf: 0
[2]; [19]
  Plant response rating, Velvetleaf: 0
[2]; [20]
  Plant response rating (0 to 100), Velvetleaf: 10
[2]; [21]
  Plant response rating, Velvetleaf: 0
[3]; [18]
  Plant response rating, Pigweed: 100
[3]; [19]
  Plant response rating, Pigweed: 20
[3]; [20]
  Plant response rating (0 to 100), Pigweed: 100
[3]; [21]
  Plant response rating, Pigweed: 60
Nightshade; Rate 62 g/ha, scale 0 to 100
  Plant response rating, Nightshade: 0
Nightshade; [18]
  Plant response rating, Nightshade: 0
Nightshade; Rate 250 g/ha, scale 0 to 100, 0 no effect, 100 complete control
  Plant response rating, Nightshade: 10
[4]; [18]
  Plant response rating, Cocklebur: 0
[4]; [19]
  Plant response rating, Cocklebur: 0
[4]; [20]
  Plant response rating (0 to 100), Cocklebur: 0
[4]; [21]
  Plant response rating, Cocklebur: 0
Kochia (Kochia scoparia); [18]
  Plant response rating, Kochia: 100
Kochia (Kochia scoparia); [19]
  Plant response rating, Kochia: 0
Kochia (Kochia scoparia); [20]
  Plant response rating (0 to 100), Kochia: 100
Kochia (Kochia scoparia); [21]
  Plant response rating, Kochia: 100
[5]; [18]
  Plant response rating, Johnsongrass: 70
[5]; [19]
  Plant response rating, Johnsongrass: 20
[5]; [20]
  Plant response rating (0 to 100), Johnsongrass: 100
[5]; [21]
  Plant response rating, Johnsongrass: 100
[6]; [18]
  Plant response rating, Bermudagrass: 100
[6]; [19]
  Plant response rating, Bermudagrass: 100
[6]; [20]
  Plant response rating (0 to 100 where 0 is no effect and 100 is complete control), Bermudagrass: 100
[6]; [21]
  Plant response rating, Bermudagrass: 100
[7]; [18]
  Plant response rating, Ragweed, Common: 0
[7]; [19]
  Plant response rating, Ragweed, Common: 0
[7]; [20]
  Plant response rating (0 to 100), Ragweed, Common: 100
[7]; [21]
  Plant response rating, Ragweed, Common: 100
[8]; [18]
  Plant response rating, Foxtail, Giant: 60
[8]; [19]
  Plant response rating, Foxtail, Giant: 20
[8]; [20]
  Plant response rating (0 to 100), Foxtail, Giant: 100
[8]; [21]
  Plant response rating, Foxtail, Giant: 80
[9]; [18]
  Plant response rating, Goosegrass: 100
[9]; [19]
  Plant response rating, Goosegrass: 100
[9]; [20]
  Plant response rating (0 to 100), Goosegrass: 100
[9]; [21]
  Plant response rating, Goosegrass: 100
[10]; [18]
  Plant response rating, Crabgrass: 100
[10]; [19]
  Plant response rating, Crabgrass: 100
[10]; [20]
  Plant response rating (0 to 100), Crabgrass: 100
[10]; [21]
  Plant response rating, Crabgrass: 100
[11]; [18]
  Plant response rating, Surinam grass: 80
[11]; [19]
  Plant response rating, Surinam grass: 80
[11]; [20]
  Plant response rating (0 to 100), Surinam grass: 100
[11]; [21]
  Plant response rating, Surinam grass: 90
[12]; [18]
  Plant response rating, Cupgrass, Woolly: 100
[12]; [19]
  Plant response rating, Cupgrass, Woolly: 90
[12]; [20]
  Plant response rating (0 to 100), Cupgrass, Woolly: 100
[12]; [21]
  Plant response rating, Cupgrass, Woolly: 100
[13]; [18]
  Plant response rating, Lambsquarters: 100
[13]; [19]
  Plant response rating, Lambsquarters: 100
[13]; [20]
  Plant response rating (0 to 100), Lambsquarters: 100
[13]; [21]
  Plant response rating, Lambsquarters: 100
[14]; [18]
  Plant response rating, Nutsedge: 0
[14]; [19]
  Plant response rating, Nutsedge: 0
[14]; [20]
  Plant response rating (0 to 100), Nutsedge: 90
[14]; [21]
  Plant response rating, Nutsedge: 50
[15]; [18]
  Plant response rating, Morningglory: 0
[15]; [19]
  Plant response rating, Morningglory: 0
[15]; [20]
  Plant response rating (0 to 100), Morningglory: 0
Sunflower [16]
  Plant response rating, Sunflower: 0
Soybean (Glycine max); [18]
  Plant response rating, Soybean: 20
Soybean (Glycine max); [19]
  Plant response rating, Soybean: 10
Soybean (Glycine max); [20]
  Plant response rating (0 to 100), Soybean: 20
Soybean (Glycine max); [21]
  Plant response rating, Soybean: 20
[17]; Rate 250 g/ha
  Barnyardgrass plant response rating: 80
[17]; Rate 500 g/ha
  Barnyardgrass plant response rating: 100
[17]; [22]
  Plant response rating, Barnyardgrass: 50
[17]; [23]
  Plant response rating (scale 0 to 100), Barnyardgrass: 30
Rice (Oryza saliva); Rate 250 g/ha
  Rice plant response rating: 0
Rice (Oryza saliva); Rate 500 g/ha
  Rice plant response rating: 35
Rice (Oryza saliva); [22]
  Plant response rating, Rice: 0
Rice (Oryza saliva); [23]
  Plant response rating (scale 0 to 100), Rice: 0
